From US12023308B2, “Agents for reversing toxic proteinopathies” (THE BROAD INSTITUTE, INC., priority 2019, dated 2024)

Columns and labels:
MUC1-fs [1] = experiment: BRD-4780 treatment in fs/+ knock-in mice, kidney MUC1-fs by IF and Western blot; type: in vivo, mouse
Experimental: (§1) Mice were anesthetized with 3 L/min 02 mixed with 3% isoflurane using the Combi-Vet® system (Rothacher Medical, Bern, Switzerland) for 5 min. Mouse kidneys were removed, sagittally cut to half and rapidly frozen in Tissue-Tek® O.C.T. Compound, Sakura® Finetek (OCT) (25608-930, VWR) using dry ice and 100% ethanol. Five […] sagittal cryosections (CM1950, Leica) were thaw mounted on microscope slides (Fisherbrand™ Superfrost™ Plus, Fisher Scientific) and kept in the cryostat (at −26° C.) for the duration of the sectioning process. Sections were immersion-fixed for 10 min in 4% PFA (15710, Electron Microscopy Sciences), then washed in PBS. The slides were then subjected to antigen retrieval by immersion in 10 mM citric acid buffer (pH=6), for 10 minutes at 95° C. […]
(§2) MUC1-fs and MUC1-wt mean intensities were calculated in kidney sections of mice treated with either vehicle or BRD-4780 (FIGS. 4A, 4B and 12A). As MUC1-fs and MUC1-wt levels varied in different kidney regions, and as sections might contain different portions of the different kidney regions, the levels of these proteins were analyzed only in NCC-positive distal convoluted tubules. […] Each fluorescent channel intensity was measured and a threshold was set for the identification of NCC positive cells. MUC1-fs and MUC1-wt levels were then calculated only in the NCC positive cells. […]

MUC1-fs [2] = experiment: MUC1-fs subcellular distribution (co-localization IF) in P cells; type: cell-based, human
Experimental: Cell nuclei were first identified using Hoechst staining, and cell number was calculated. Cytoplasmic regions were then detected around each nucleus based on combined channels. The cells from the edge of the field were eliminated from the analysis. For the quantification of protein abundance, the total signal intensity value for each antibody was calculated separately in the cell cytoplasm and the average signal per cell was calculated for each well. For quantitation of MUC1-fs cellular distribution and trafficking, the analysis was performed as described in FIG. 13A using the “spot” identification feature for the detection of MUC1-fs and the different organelles.
Detection of MUC1-fs in P cells at baseline and following secretory pathway perturbations was performed using immunoblot and IF analyses. […] For IF experiments (FIGS. 5B-5D and 13A-13C), P cells were plated in 384-well plates at 12,000 cells/well.

MUC1-wt = experiment: BRD-4780 treatment in fs/+ knock-in mice, kidney MUC1-wt by IF; type: in vivo, mouse; settings: daily oral gavage, 7 days
Experimental: as §1, §2

in vivo = settings: mouse
Experimental: 1) A pharmacokinetic study was performed by WuXi AppTec (Hong Kong) in fasted male 129S2/SvPasCrl mice (study #400565-20170331-MPK) to determine the oral bioavailability of BRD-4780. A single dose of BRD-4780 was administered at 3.0 mg/kg intravenously (i.v.) or 10.0 mg/kg orally (p.o) in a clear solution of 10% HP-β-CD in saline. Blood was collected serially from n=3 mice per dose group at eight time points post dose administration (0.25, 0.5, 1, 2, 4, 6, 8 and 24 hours) and plasma was obtained by centrifugation. Plasma drug concentration was determined by LC-MS/MS and reported as BRD-4780 ng/mL for plasma and ng/mg for kidney tissue, and plotted as the mean±standard deviation concentration (FIG. 11A). Standard pharmacokinetic parameters were calculated (FIG. 11B).

UPR = experiment: RNA-Seq analysis of UPR branch activation in P cells; type: cell-based, human; settings: BRD-4780 1 μM, THP 100 nM
Experimental: For RNA-seq experiments, N and P cells were plated in 12-well plates at 200,000 cells/well. Subsequently, 1 μM of BRD-4780 or DMSO were applied for 24 hr followed by 12 hr exposure to 100 nM of thapsigargin (THP) or DMSO for control. At the end of the experiment, RNA was extracted from treated cells and sequencing was performed as described below.
UPR branch activation analysis is presented as boxplots. Each box of the boxplot consists of genes comprising an individual UPR branch (Adamson et al., 2016). The expression of each gene in the group is plotted as mean of the scaled expression profiles obtained from three replicates.

[3] = Liver microsomes stability; type: in vitro ADME
Experimental: Stability was determined at 37° C. at 1 hour in liver microsomes. Each compound was prepared in duplicate at 1 μM in liver microsomes diluted 50/50 (v/v) with PBS pH 7.4. After addition of compounds to microsome mixture, the plate was sealed and vortexed and 100 µL of each sample was added to 3004 acetonitrile (with internal standard). Assay plate was incubated at 37° C. for 1 hr with a 350 rpm orbital shake, and following the hour 1004 of each sample was added to 300 μL acetonitrile (with internal standard). After quenching, samples were refrigerated for at least 1 hour. The samples were centrifuged (32×G) to pellet precipitated particulates and an aliquot of supernatant was diluted 50/50 (v/v) with water. The resulting solution was analyzed by UPLC-MS/MS with compounds detected by MRM detection on a triple quadrupole mass spectrometer. The compound peak areas in the 0 and 1 hour samples, -NADPH sample, and no compound control sample were compared to determine a percent remaining. Percent remaining in microsomes was calculated through the following equation: % remaining=[area (1 hr)/area (0 hr)]×100. (LC System, Waters Acquity I-Class; MS System, AB Sciex Triple Quad 4500; Column, Waters Acquity UPLC BEH C18, 1.7 μm, 2.1×50 mm; Mobile Phase A, Water with 0.1% formic acid; Mobile Phase B, Acetonitrile with 0.1% formic acid; Flow Rate, 0.90 mL/min; Column Temperature, 55° C.).

[4] = In vitro toxicity (cell number / viability); type: cell-based; settings: any concentration tested
From the text: Image acquisition and analysis was done as described elsewhere herein. Following image analysis, three parameters were selected, i) MUC1-fs and ii) MUC1-wt total cytoplasm intensity (averaged per cell) and iii) cell number as was detected by Hoechst 33342 stained nuclei. The levels of MUC1-fs and MUC1-wt found following DMSO and JQ1 were defined as 0 and −100% activity, respectively. […] Cell number was normalized to DMSO control. All compound concentrations showing >−20% reduction in cell number were masked out. Based on ±3 median absolute deviation value (FIG. 10A), hit calling criteria for the primary and secondary screens were chosen as MUC1-fs reduction >30% in two or more consecutive concentrations for both replicates. For the secondary screen, dose response curves were generated for each parameter using Genedata Screener (Genedata AG), and positive hits for the profiling screens were selected based on the compounds activity for reducing MUC1-fs and lack of toxicity. MUC1-fs specificity (according to MUC1 fs/wt ratio) was used as an additional positive criterion for selection.

P cells = experiment: P cell viability upon THP treatment (live imaging, rescue); type: cell-based, human; settings: P cells
Experimental: To study apoptosis and cell death in N and P cells, 384 well Cell Carrier Ultra plates (6057308, Perkin Elmer), pre-coated with 0.25 mg/mL Synthemax II SC Substrate (3535, Corning) were used. […] CellEvent Caspase-3/7 Green Detection Reagent (C10423, Thermo Fisher Scientific®) and DRAQ7 (DR71000, Biostatus) were used at 1:5000 to monitor apoptosis and cell death respectively. Cells were imaged daily during 4 days to monitor viability and image analysis was performed as described below. For rescue experiments, P cells were plated on 96 well Cell Carrier Ultra microplates (6055302, Perkin Elmer) at 30,000 cells/well and cultured for 24 hr. BRD-4780 (5 μM) was applied as a pretreatment for 48 hr prior to thapsigargin exposure and throughout the experiment. Thapsigargin was applied at increasing doses and the plates were imaged daily thereafter.
For the measurement of P cell rescue from THP-induced cell death by BRD-4780 (FIGS. 3I and 3J), no dyes were added to avoid any influence on cell growth. Digital phase contrast images were used for cell identification and count, and autofluorescence in the far-red channel was used for detection of dead cells. Cells with no autofluorescence were identified and calculated as live cell.
P cells were seeded 12 hr prior to profiling compound treatment at a density of 12,000 cells/well in 384 well Cell Carrier Ultra plates (6057308, Perkin Elmer), pre-coated with 0.25 mg/mL Synthemax II SC Substrate (3535, Corning). After 24 hr, CellEvent Caspase-3/7 Green Detection Reagent (C10423, Thermo Fisher Scientific®) and DRAQ7 (DR71000, Biostatus) were added at 1:5000 final dilution in the presence or absence of thapsigargin (100 nM). Cells were imaged daily during 7 days to monitor viability. Image acquisition and analysis was done as described above and viability was assessed as fraction of live cells at day 5 of thapsigargin treatment, and at the day 6 for DMSO.

CC(C)[C@@H]1[C@H]2CC[C@H](C2)[C@H]1N (racemic) [BRD-4780, 2-endo-amino-3-exo-isopropylbicyclo[2.2.1]heptane]
MUC1-fs in kidney tissue at highest dose (MUC1-fs [1]; fs/+ mice, 50 mg/kg daily oral gavage, 7 days): nearly indistinguishable from control (+/+) mouse kidneys | MUC1-fs protein in mouse kidneys (MUC1-fs [1]; mouse, in vivo): dose-dependent removal of mutant MUC1-fs protein | MUC1-fs subcellular distribution (MUC1-fs [2]): reduced in the early secretory compartment | MUC1-wt in mouse kidneys (MUC1-wt): no effect on MUC1-wt | bioavailability (in vivo; male, 129S2/SvPasCrl): 119% | oral bioavailability (in words) (in vivo; po): excellent oral bioavailability | UPR activation (UPR): significantly reduced UPR activation | microsomal stability [3]: good microsomal and plasma stability | in vitro toxicity [4]: no overt toxicity at any concentration tested | rescue from THP-induced cell death (P cells): rescued P cells from THP-induced cell death
